Values quoted from earlier work, collected in PMC11007962, “First-in-human study of GFH018, a small molecule inhibitor of transforming growth factor-β receptor I inhibitor, in patients with advanced solid tumors” (BMC Cancer, 2024).

What was measured:
[1] = parameters: method as in PMID 25488804, PMID 26309397; details: consecutive regimens; cited from earlier work
[2] = tested on: advanced HPV-associated malignancies; parameters: method as in PMID 33323462; details: patients with advanced HPV-associated malignancies; comparators are historical data; cited from earlier work

Row | Molecule | cardiac findings in toxicology studies [1] | ORR [2]
1 | Cc1cccc(-c2nn3c(c2-c2ccnc4ccc(C(N)=O)cc24)CCC3)n1 [galunsertib, reference compound] | cardiac lesions occur | 
2 | nivolumab: historical comparator in HPV-associated malignancies |  | 24%
3 | pembrolizumab: historical comparator in HPV-associated malignancies |  | 24%
4 | bintrafusp alfa: bifunctional fusion protein targeting TGF-β and PD-L1 (antibody, chains of the INN, looked up, V domains shown) VH: EVQLLESGGGLVQPGGSLRLSCAASGFTFSSYIMMWVRQAPGKGLEWVSSIYPSGGITFYADTVKGRFTISRDNSKNTLYLQMNSLRAEDTAVYYCARIKLGTVTTVDYWGQGTLVTVSS VL: QSALTQPASVSGSPGQSITISCTGTSSDVGGYNYVSWYQQHPGKAPKLMIYDVSNRPSGVSNRFSGSKSGNTASLTISGLQAEDEADYYCSSYTSSSTRVFGTGTKVTVL |  | 35.6%
